Assay results as given in paper PMC3412845, “Waking Action of Ursodeoxycholic Acid (UDCA) Involves Histamine and GABAA Receptor Block” (PLoS ONE, 2012).

Assays:
[1] = system: TMN neurons (eIPSCs and sIPSCs); test: Spontaneous and evoked IPSCs in TMN neurons in brain slices; assay type: cell-based, rat
Description: Recordings from histaminergic neurons in male Wistar rat (22–26 day old) or 30–60 day old mouse (SV129, histidine decarboxylase deficient HDC−/− or their wild type littermates) hypothalamic slices were performed as previously described. Slices were obtained between 9 and 11 a.m. In the beginning of whole-cell voltage clamp recordings TMN neurons were identified with the help of DIC microscopy and electrophysiological criteria as previously described. Inhibitory postsynaptic currents (IPSCs) were evoked by local stimulation through a bipolar stainless-steel stimulating electrode (50 µm; WPI, UK). The stimulation of axonal endings coming to TMN from ventrolateral preoptic area (VLPO) was done as described in [22]. […] Individual neurons were separated by vibrodissociation after brief preincubation with papain from the hypothalamic slices of mice or rats and identified as TMN neurons according to their size and shape. Identification was confirmed post hoc with the single-cell RT-PCR (all data presented in the manuscript were obtained from histidine decarboxylase-expressing neurons), [40]. TMN neurons from HDC−/− mice were identified by the expression of peripherin [16]. Whole-cell voltage-clamp recordings from isolated neurons were done with an EPC-9 amplifier and TIDA for Windows (HEKA, Lambrecht, Germany) at room temperature. Membrane potentials were not corrected for liquid junction potential (5.6 mV, calculated with LJPCalc, Barry, 1994). The intracellular solution was composed of (in mM) 140 KCl, 2 MgCl2, 0.5 CaCl2, 5 EGTA, 2 ATP and 10 HEPES (pH 7.2 adjusted with NaOH). A fast perfusion technique was used for application of ligands and modulators of fast ionotropic receptors, [41]. […] EC50 is the ligand concentration producing a half-maximal response, [ligand] is ligand concentration, and n is the Hill slope. Hill coefficients were obtained from the slope of the log/log plot of the dose-response curves. […] Steady-state amplitudes of the responses were used for the construction of dose-response plots if not mentioned otherwise.

[2] = system: TMN neurons; test: Firing of TMN neurons recorded in hypothalamic slices; assay type: cell-based, mouse; settings: UDCA 100 µM, n = 10
Description: Recordings from histaminergic neurons in male Wistar rat (22–26 day old) or 30–60 day old mouse (SV129, histidine decarboxylase deficient HDC−/− or their wild type littermates) hypothalamic slices were performed as previously described. Slices were obtained between 9 and 11 a.m. In the beginning of whole-cell voltage clamp recordings TMN neurons were identified with the help of DIC microscopy and electrophysiological criteria as previously described. Inhibitory postsynaptic currents (IPSCs) were evoked by local stimulation through a bipolar stainless-steel stimulating electrode (50 µm; WPI, UK). The stimulation of axonal endings coming to TMN from ventrolateral preoptic area (VLPO) was done as described in [22]. […] Individual neurons were separated by vibrodissociation after brief preincubation with papain from the hypothalamic slices of mice or rats and identified as TMN neurons according to their size and shape. Identification was confirmed post hoc with the single-cell RT-PCR (all data presented in the manuscript were obtained from histidine decarboxylase-expressing neurons), [40]. TMN neurons from HDC−/− mice were identified by the expression of peripherin [16]. […] Membrane potentials were not corrected for liquid junction potential (5.6 mV, calculated with LJPCalc, Barry, 1994). […]

[3] = system: GABAA receptor; test: Voltage dependence of GABAAR block (Woodhull analysis); assay type: cell-based
Description: Voltage dependence of GABAAR block by UDCA was analysed according to the method of Woodhull, which provides a means of calculating the fraction of the transmembrane field sensed by charged blocking ligand at its acceptor site.

[4] = system: NMDA receptors; test: NMDA-evoked currents in isolated neurons; assay type: cell-based
Description: Recordings from histaminergic neurons in male Wistar rat (22–26 day old) or 30–60 day old mouse (SV129, histidine decarboxylase deficient HDC−/− or their wild type littermates) hypothalamic slices were performed as previously described. Slices were obtained between 9 and 11 a.m. In the beginning of whole-cell voltage clamp recordings TMN neurons were identified with the help of DIC microscopy and electrophysiological criteria as previously described. Inhibitory postsynaptic currents (IPSCs) were evoked by local stimulation through a bipolar stainless-steel stimulating electrode (50 µm; WPI, UK). The stimulation of axonal endings coming to TMN from ventrolateral preoptic area (VLPO) was done as described in [22]. Visual identification of histaminergic neurons recorded in cell-attached configuration (see [16]) was confirmed by the significant reduction of firing rate by the histamine 3 (H3) receptor agonist R-α-methylhistamine (0.2 µM), which was performed at the end of each experiment. Individual neurons were separated by vibrodissociation after brief preincubation with papain from the hypothalamic slices of mice or rats and identified as TMN neurons according to their size and shape. Identification was confirmed post hoc with the single-cell RT-PCR (all data presented in the manuscript were obtained from histidine decarboxylase-expressing neurons), [40]. TMN neurons from HDC−/− mice were identified by the expression of peripherin [16]. Whole-cell voltage-clamp recordings from isolated neurons were done with an EPC-9 amplifier and TIDA for Windows (HEKA, Lambrecht, Germany) at room temperature. Membrane potentials were not corrected for liquid junction potential (5.6 mV, calculated with LJPCalc, Barry, 1994). The intracellular solution was composed of (in mM) 140 KCl, 2 MgCl2, 0.5 CaCl2, 5 EGTA, 2 ATP and 10 HEPES (pH 7.2 adjusted with NaOH). A fast perfusion technique was used for application of ligands and modulators of fast ionotropic receptors, [41]. […] EC50 is the ligand concentration producing a half-maximal response, [ligand] is ligand concentration, and n is the Hill slope. Hill coefficients were obtained from the slope of the log/log plot of the dose-response curves. […] Steady-state amplitudes of the responses were used for the construction of dose-response plots if not mentioned otherwise.
For the testing of UDCA action at NMDA receptors a maximal 0.2 mM concentration of agonist was used. Recordings were done in Mg^2+ -free solution in the presence of 10 µM of glycine. NMDA-currents were abolished by the NMDA receptor antagonist D-AP5 (100 µM).

[5] = target: T1, α1β3γ2L GABAA receptors (UniProt P22723+P28472+P62813); test: Patch-clamp of recombinant α1β3γ2L GABAAR in HEK293 cells; assay type: cell-based, rat α1, human β3, mouse γ2L
T1 construct: expressed in transfected cells; host or cells: HEK293
T1 sequence (P62813 28-455): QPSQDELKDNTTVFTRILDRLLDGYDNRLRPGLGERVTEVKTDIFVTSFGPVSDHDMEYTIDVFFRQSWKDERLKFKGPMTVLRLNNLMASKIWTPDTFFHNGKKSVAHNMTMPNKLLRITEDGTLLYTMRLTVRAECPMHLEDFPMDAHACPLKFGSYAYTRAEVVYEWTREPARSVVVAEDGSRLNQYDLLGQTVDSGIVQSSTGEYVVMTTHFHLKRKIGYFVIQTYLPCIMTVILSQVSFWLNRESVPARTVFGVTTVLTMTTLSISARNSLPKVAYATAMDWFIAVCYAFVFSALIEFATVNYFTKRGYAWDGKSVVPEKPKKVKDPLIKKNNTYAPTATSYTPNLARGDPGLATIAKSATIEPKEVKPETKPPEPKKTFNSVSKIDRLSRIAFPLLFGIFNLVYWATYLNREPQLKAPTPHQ
T1 sequence (P28472 26-473): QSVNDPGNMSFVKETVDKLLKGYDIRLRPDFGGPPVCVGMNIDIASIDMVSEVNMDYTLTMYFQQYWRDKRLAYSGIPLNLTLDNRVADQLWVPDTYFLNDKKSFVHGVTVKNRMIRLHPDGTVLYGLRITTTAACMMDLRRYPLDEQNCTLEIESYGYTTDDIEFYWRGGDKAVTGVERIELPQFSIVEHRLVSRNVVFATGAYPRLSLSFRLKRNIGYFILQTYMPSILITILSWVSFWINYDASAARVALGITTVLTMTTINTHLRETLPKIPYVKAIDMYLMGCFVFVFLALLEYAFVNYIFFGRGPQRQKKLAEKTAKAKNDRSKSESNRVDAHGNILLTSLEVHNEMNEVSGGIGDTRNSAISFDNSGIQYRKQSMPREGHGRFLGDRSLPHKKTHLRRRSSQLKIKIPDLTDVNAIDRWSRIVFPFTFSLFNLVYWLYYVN
T1 sequence (P22723 39-474): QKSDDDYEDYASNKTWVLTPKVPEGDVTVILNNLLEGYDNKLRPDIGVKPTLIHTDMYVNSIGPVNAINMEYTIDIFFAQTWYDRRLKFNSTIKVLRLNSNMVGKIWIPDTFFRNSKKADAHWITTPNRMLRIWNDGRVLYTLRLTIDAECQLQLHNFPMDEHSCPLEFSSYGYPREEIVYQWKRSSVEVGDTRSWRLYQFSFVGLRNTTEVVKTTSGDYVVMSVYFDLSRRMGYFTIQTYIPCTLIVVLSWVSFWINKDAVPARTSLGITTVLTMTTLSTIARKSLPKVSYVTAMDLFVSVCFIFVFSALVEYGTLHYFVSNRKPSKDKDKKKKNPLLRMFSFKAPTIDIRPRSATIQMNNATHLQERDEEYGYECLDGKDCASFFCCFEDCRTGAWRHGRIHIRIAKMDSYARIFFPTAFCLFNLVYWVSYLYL
Description: (§1) HEK 293 cells were obtained from DSM (Deutsche Sammlung von Mikroorganismen und Zellkulturen GmbH, DSM, Braunschweig). They were grown and maintained according to published standard protocols. Briefly, cells were grown in minimal essential medium supplemented with 10% fetal bovine serum, 100units/ml penicillin and streptomycin and 2 mM L-glutamine and splitted once per week. Semiconfluent cells were transfected on the third day after splitting with the help of Lipofectamine 2000 (Invitrogen), recordings were done 48–72 hrs after transfection.
(§2) The GABAAR subunit cDNAs, generously donated by G.Gisselmann (rat α1, mouse γ2L, rat β1, β2 and human β3 [26]) and J.H. Steinbach (rat α1V256S [28] and rat α1Q241L [44]), were subcloned into pcDNA3 (Invitrogen, Karlsruhe, Germany) and applied in a ratio 1∶1∶1 for the α1βxγ2L receptor and 1∶1 for α1β3 or β3γ2L receptors. […] For each receptor type patch clamp recordings were obtained from at least three separate transfections. Whole-cell patch clamp recordings were done in a similar extracellular solution as for the native cells (see above) except that the concentration of MgCl2 was reduced to 1.2 mM. Intracellular electrodes contained 140 mM CsCl (instead of KCl), pH adjusted with CsOH. The voltage was held at −40 mV.

[6] = target: T2, α1β1γ2L GABAA receptors (UniProt P15431+P22723+P62813); test: Patch-clamp of recombinant α1β1γ2L GABAAR in HEK293 cells; assay type: cell-based, rat α1, rat β1, mouse γ2L
T2 construct: expressed in transfected cells; host or cells: HEK293
T2 sequence (P62813 28-455): as the sequence (P62813 28-455) above
T2 sequence (P15431 26-474): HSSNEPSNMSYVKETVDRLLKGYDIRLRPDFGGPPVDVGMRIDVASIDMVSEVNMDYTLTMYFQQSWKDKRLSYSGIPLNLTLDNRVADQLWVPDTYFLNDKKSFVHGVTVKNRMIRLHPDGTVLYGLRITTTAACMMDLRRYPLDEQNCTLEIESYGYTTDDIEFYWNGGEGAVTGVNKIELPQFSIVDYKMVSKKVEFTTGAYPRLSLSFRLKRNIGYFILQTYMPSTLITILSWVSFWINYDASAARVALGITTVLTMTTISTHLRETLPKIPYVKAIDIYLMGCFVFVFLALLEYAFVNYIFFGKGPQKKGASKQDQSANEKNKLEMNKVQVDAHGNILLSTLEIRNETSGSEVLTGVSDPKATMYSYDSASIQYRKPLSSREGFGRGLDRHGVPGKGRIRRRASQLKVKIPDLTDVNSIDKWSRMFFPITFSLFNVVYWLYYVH
T2 sequence (P22723 39-474): as the sequence (P22723 39-474) above
Description: as §1, §2

[7] = design: method as in PMID 22356133; settings: cited from earlier work

C[C@H](CCC(=O)O)[C@H]1CC[C@H]2[C@@H]3[C@@H](O)C[C@@H]4C[C@H](O)CC[C@]4(C)[C@H]3CC[C@]12C [UDCA, ursodeoxycholic acid]
effect on eIPSCs and sIPSCs ([1]; 30 µM): ineffective
amplitude of eIPSCs and sIPSCs ([1]; 100 µM): significantly inhibited the amplitude of eIPSCs and sIPSCs in less than half of the neurons
amplitude and decay time of eIPSCs and sIPSCs ([1]; 300 µM, all investigated neurons): significant reductions
firing at the end of UDCA application [2]: 86±5 % of control
current amplitude at +50 mV in the presence of UDCA [3]: 69±5 % of control (−50 mV)
fraction of the transmembrane field sensed at the acceptor site (f) ([3]; Woodhull fit, Eq. 3): 0.29±0.03
Kd ([3]; Woodhull fit, Eq. 3, read-out: KD(0), dissociation constant at 0 mV): 64 µM
stationary GABA current in the presence of UDCA relative to unblocked current ([3]; at +50 mV): 28±2%
stationary GABA current in the presence of UDCA relative to unblocked current ([3]; at −50 mV): 59±2%
concentration above which block of NMDA receptors starts [4]: higher than 100 µM
NMDA-receptor mediated currents ([4]; 100 µM): did not affect
IC50 ([4]; read-out: IC50 of NMDA receptor block, n = 4, NMDA 0.2 mM, Mg2+-free, 10 µM glycine): 540 ± 40 µM
Hill coefficient nH of UDCA block ([5]; maximal GABA): 0.63
IC50 ([5]; read-out: IC50 of block of GABA-evoked steady-state currents): 73 µM
IC50 [6]: 96 ± 17 µM
access to the CNS [7]: reaches the CNS
